Broadly, the IC50 is the midpoint of a concentration-inhibition curve. A low value points to greater potency in that assay. One may read the CLint scaled as a measure of how fast metabolising enzymes remove a compound, apart from limits set by blood flow. The term half-life denotes how long it takes for the measured level to halve. Lower therefore signals rapid decline.

Structures are written as SMILES.

Data set [1] has as its target α2B (Homo sapiens, UniProt P18089). Description: BioPrint profiling, α2B. The note with it: BioPrint profiling (Eurofins CEREP).
In data set [2] the target is A3 (Homo sapiens, UniProt P0DMS8). The data set can be described thus: BioPrint profiling, A3. The note with it: BioPrint profiling (Eurofins CEREP). The text has this:
However, the involvement of multiple metabolizing enzymes such as CYP1A2, CYP2C9/19, CYP1A2, and CYP2D6 with a minor contribution in the formation of M1, M6, M19, and M21 and the involvement of UGT1A1 and UGT2B7 in the formation of M15 from M1 and the formation of 23 metabolites might reduce the risk of drug–drug interaction potential mediated by a single metabolizing enzyme and a main metabolite. Additionally, it may reduce the intersubject variability caused by genetic variations in these metabolizing enzymes.

In data set [3] the test system is histamine-stimulated gastric acid secretion. Details: method as in PMID 36504556. Conditions: Heidenhain pouch dog model; cited from earlier work.
In data set [4] the test system is dog hepatocytes. Description: Metabolic stability of JP-1366 in dog hepatocytes. The note with it: dog hepatocytes. Format: in vitro ADME. The procedure:
(§1) According to the manufacturer’s protocol, cryopreserved human, dog, monkey, mouse, and rat hepatocytes were purified and recovered. […] The metabolic reaction in each sample well was quenched by adding 120 μL of ice-cold acetonitrile.
(§2) Log-transformed relative responses of JP-1366 were plotted against incubation time, thereby obtaining the elimination slope (k) from the linear regression analysis. […] (1) t1 /2(min)=ln2/kelimination slope (2) Clint(mL/min/kg)=ln2/t1/2×mL incubation/hepatocyte (10^6 cells)×B×10^6 cells/g liver×A g liver/kg BW (3) Clhep(mL/min/kg)=Qh×Clint/Qh+Clint (4) HER=Clhep/Qh
(§3) Here, A means the liver weight parameters and has values of 25.7, 32, 30, 87.5, and 40; B means the cell number parameters and has values of 139, 215, 120, 135, and 117; Qh represents hepatic blood flow and has values of 20.7, 30.9, 43.6, 90, and 55.2 mL/min/kg for humans, dogs, monkeys, mice, and rats, respectively. Hepatic extraction ratios (HERs) of ≤0.25, 0.25–0.75, and ≥0.75 were regarded as low, moderate, and high, respectively.

Data set [5] in a line: Metabolic stability of JP-1366 in dog hepatocytes. Format: in vitro ADME. Conditions: cryopreserved dog hepatocytes. The procedure: as §1, §2, §3
For data set [6] the following is noted: cited from earlier work.
In data set [7] the test system is gastric acid secretion. The note with it: lumen-perfused rat model, among JP-1366, vonoprazan, and tegoprazan; cited from earlier work.
In data set [8] the test system is mouse hepatocytes. The data set can be described thus: Metabolic stability of JP-1366 in mouse hepatocytes. The data set is classed as in vitro ADME. The note with it: mouse hepatocytes. The procedure: as §1, §2, §3
Test in data set [9]: as above
Conditions: cryopreserved mouse hepatocytes. Format: in vitro ADME. The procedure:
as §1, §2, §3

Data set [10] addresses T1, human cDNA-expressed CYP2C9 (Homo sapiens, UniProt P11712).
T1 construct: purchased Corning Life Sciences
The data set can be described thus: Enzyme kinetics of JP-1366 metabolism in cDNA-expressed CYP2C9. The data set is classed as in vitro ADME. The procedure: (§4) The reaction was initiated by adding 5 μL of NADPH-generating system in triplicate, and the mixture was further incubated for 30 min at 37 °C in a shaking water bath.
(§5) The concentrations of the metabolites were quantitated, and their formation rates (pmol/mg protein/min) were calculated by dividing the amounts of metabolites formed from the incubation with human liver microsomes and human cDNA-expressed CYP or UGT enzymes by the incubation time.

The test system of data set [11] is human, dog, monkey, mouse, and rat hepatocytes. The data set can be described thus: In vitro metabolic profiling of JP-1366 in hepatocytes. Format: in vitro ADME. The note with it: 10 µM JP-1366, 60 min; H human, D dog, Mk monkey, M mouse, R rat. The procedure: Cryopreserved human, dog, monkey, mouse, and rat hepatocytes were purified and recovered according to the manufacturer’s protocol. […] The metabolic reaction in each sample well was quenched by adding 120 μL of ice-cold acetonitrile.
MS spectra were obtained in positive-ion mode using electrospray ionization under optimized conditions as follows: capillary temperature, 350 °C; sheath gas flow rate, 40 (arbitrary units); aux gas flow rate, 10 (arbitrary units); and aux gas heater temperature, 350 °C. Full MS scan with data-dependent MS/MS was performed from m/z 100 to m/z 1000.

In data set [12] the target is T2, human cDNA-expressed CYP2C8 (Homo sapiens, UniProt P10632).
T2 construct: purchased Corning Life Sciences
T2 sequence (P10632 1-490): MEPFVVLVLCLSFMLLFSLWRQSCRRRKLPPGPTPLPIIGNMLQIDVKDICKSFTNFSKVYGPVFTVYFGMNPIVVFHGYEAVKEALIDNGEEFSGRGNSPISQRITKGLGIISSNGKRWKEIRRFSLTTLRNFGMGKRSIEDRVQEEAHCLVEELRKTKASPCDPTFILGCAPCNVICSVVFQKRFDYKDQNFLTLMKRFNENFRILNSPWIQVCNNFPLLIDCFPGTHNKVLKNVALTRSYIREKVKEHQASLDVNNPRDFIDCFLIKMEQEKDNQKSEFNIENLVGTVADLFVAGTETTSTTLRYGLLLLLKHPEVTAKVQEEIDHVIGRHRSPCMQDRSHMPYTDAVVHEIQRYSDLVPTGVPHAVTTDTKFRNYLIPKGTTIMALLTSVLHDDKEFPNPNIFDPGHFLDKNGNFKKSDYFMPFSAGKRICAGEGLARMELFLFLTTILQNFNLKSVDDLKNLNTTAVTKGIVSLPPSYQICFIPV
Description: Enzyme kinetics of JP-1366 metabolism in cDNA-expressed CYP2C8. The data set is classed as in vitro ADME. The procedure:
as §4, §5

Where [13] appears, read: formation of the labelled metabolite from JP-1366, CYP2C9.

T1 sequence (P11712 whole entry): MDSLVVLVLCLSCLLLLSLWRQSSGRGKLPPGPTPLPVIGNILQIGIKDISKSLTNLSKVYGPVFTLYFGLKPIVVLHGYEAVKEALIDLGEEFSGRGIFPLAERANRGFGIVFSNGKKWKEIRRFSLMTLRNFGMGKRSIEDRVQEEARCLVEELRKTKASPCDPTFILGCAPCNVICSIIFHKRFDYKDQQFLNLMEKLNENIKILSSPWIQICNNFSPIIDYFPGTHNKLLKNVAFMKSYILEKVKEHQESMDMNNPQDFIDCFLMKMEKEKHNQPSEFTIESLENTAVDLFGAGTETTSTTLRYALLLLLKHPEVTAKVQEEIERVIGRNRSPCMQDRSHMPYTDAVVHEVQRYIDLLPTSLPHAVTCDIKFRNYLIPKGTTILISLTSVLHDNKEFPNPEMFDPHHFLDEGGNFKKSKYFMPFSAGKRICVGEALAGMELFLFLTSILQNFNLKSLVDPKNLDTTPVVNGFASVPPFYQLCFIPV
Sequence of α2B (P18089 whole entry): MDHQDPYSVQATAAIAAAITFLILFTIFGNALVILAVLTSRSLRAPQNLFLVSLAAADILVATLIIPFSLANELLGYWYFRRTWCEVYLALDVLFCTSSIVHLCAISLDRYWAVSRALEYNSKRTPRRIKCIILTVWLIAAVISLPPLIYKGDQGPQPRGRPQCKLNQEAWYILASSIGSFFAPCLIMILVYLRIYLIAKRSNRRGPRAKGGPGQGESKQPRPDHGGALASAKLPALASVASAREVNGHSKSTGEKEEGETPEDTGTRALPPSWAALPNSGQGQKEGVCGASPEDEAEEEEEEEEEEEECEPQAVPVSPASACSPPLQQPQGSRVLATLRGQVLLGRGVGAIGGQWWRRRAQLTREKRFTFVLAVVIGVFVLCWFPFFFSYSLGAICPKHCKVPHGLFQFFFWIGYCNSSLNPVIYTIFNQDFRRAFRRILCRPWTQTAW
Sequence of A3 (P0DMS8 whole entry): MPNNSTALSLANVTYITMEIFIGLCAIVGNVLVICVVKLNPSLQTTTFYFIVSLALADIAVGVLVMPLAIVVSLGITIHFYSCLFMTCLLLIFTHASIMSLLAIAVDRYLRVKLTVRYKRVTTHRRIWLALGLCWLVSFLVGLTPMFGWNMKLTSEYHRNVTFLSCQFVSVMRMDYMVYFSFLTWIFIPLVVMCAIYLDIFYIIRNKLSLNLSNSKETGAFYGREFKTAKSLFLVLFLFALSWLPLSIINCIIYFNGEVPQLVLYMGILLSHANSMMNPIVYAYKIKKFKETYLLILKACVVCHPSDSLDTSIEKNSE

Regarding `Cc1cccc(C)c1CNc1cc(C(=O)N2CCC2)cn2c(C)c(C)nc12` [JP-1366, 1-azetidinyl(8-(((2,6-dimethylphenyl)methyl)amino)-2,3-dimethylimidazo(1,2-a)pyridin-6-yl)methanone], the IC50 came out at 1200 nM in data set [1] and 2700 nM in data set [2]. Also, in data set [3], the “inhibition of histamine-stimulated gastric acid secretion” value is “equal to or higher than vonoprazan”. Besides, the CLhep was found to be 25.6 mL/min/kg in data set [4] and 75.3 mL/min/kg in data set [8]. Moreover, the HER in [4] amounted to 0.83; in data set [8], 0.84. Moreover, the CLint scaled at 1 µM in data set [5] (dog hepatocytes, scaled with physiological parameters) was 150 mL/min/kg; in data set [9] (mouse hepatocytes, scaled with physiological parameters), 461 mL/min/kg. Further, the figures for the half-life at 1 µM in data set [5] (dog) and in data set [9] (mouse) were 63.5 min and 59.2 min, respectively. Moreover, the safety and tolerability entry in data set [6] (SAD up to 60 mg, MAD up to 40 mg, healthy male Korean subjects) is “safe and well tolerated”. The “dose-normalized AUC among genetic variants of CYP2C19, CYP3A5, CYP2D6, UGT1A1, and UGT2B17” value in [6] is “not significantly different”. For the same compound, the “gastric acid secretion inhibitory effect” value in data set [7] is “fastest-acting and superior gastric acid secretion inhibitory effect”.
Consider `Cc1cccc(CO)c1CNc1cc(C(=O)N2CCC2)cn2c(C)c(C)nc12` [M1, azetidin-1-yl(8-((2-(hydroxymethyl)-6-methyl-benzyl)amino)-2,3-dimethylimidazo[1,2-a]pyridin-6-yl)methanone], for which the CLint is given as 0.14 μL/min/pmol CYP in data set [10] (setting [13]) and 0.031 μL/min/pmol CYP in data set [12] (formation of the labelled metabolite from JP-1366, CYP2C8). In data set [10] (setting [13]), the “n (Hill coefficient)” value turned out to be 1.2. The “Contribution (%)” value is 10.3% in data set [10] (relative contribution of CYP2C9 to formation of the labelled metabolite) and 3.7% in [12] (relative contribution of CYP2C8 to formation of the labelled metabolite). Also, the “Hepatocytes (species in which the metabolite was found)” value in [11] is “H, D, Mk, M, R”. The Ki in [12] (substrate inhibition kinetics, formation of the labelled metabolite, CYP2C8) stood at 197 µM.

These data come from paper PMC11207335, “In Vitro Metabolism and Transport Characteristics of Zastaprazan” (Pharmaceutics, 2024).
